Test results from ChEMBL document CHEMBL1153130, “Discovery of dipiperidines as new antitubercular agents” (Bioorg Med Chem Lett, 2010).
pIC50: −log10 of the molar value. Values after ≈ are worked out from the molar mass of the structure shown.

Legend:
[1] = tested on: Mycobacterium tuberculosis; assay: Antitubercular activity against Mycobacterium tuberculosis H37Rv assessed as inhibition of cell wall biosynthesis after 10 to 14 days by bioluminescence assay relative to ethambutol; type: functional; set-up: scale not given: the % may be the effect or the level left
HepG2 = assay: Cytotoxicity against human HepG2 cells after 72 hrs by MTS assay; type: cell-based; settings: HepG2, 72 h
[2] = tested on: Mycobacterium tuberculosis; assay: Antitubercular activity against Mycobacterium tuberculosis H37Rv after 10 to 14 days by BACTEC assay; type: functional
[3] = tested on: Mycobacterium tuberculosis; assay: Antitubercular activity against Mycobacterium tuberculosis H37Rv after 10 to 14 days by broth microdilution assay; type: functional
[4] = Selectivity index, IC50 for human HepG2 cells to MIC for Mycobacterium tuberculosis H37Rv ATCC 25618; type: functional

Row | SMILES | Activity [1] [%] | pIC50 (HepG2) | MIC [2] [µM] | MIC [3] [µM] | Selectivity Index [4]
1 | OC1CCN(CC2CCN(CC34CC5CC(CC(C5)C3)C4)CC2)CC1 | 59 | 4.25 | 15.6 (≈ 5.41 µg/mL) | 6.25 (≈ 2.17 µg/mL) | 8.96
2 | OC1CCN(CC2CCN(C3C4CC5CC(C4)CC3C5)CC2)CC1 (centres undefined) | 102 | 4.60 |  | 31.2 (≈ 10.4 µg/mL) | 0.8
3 | OC1CCN(CC2CCN(CC(c3ccccc3)c3ccccc3)CC2)CC1 | 125 | 4.52 | 16 (≈ 6.06 µg/mL) | 7.8 (≈ 2.95 µg/mL) | 3.85
